US20230406885A1, “CYCLIC PEPTIDES FOR TRAPPING INTERLEUKIN-1 BETA” (MERCK SHARP & DOHME LLC, priority 2022, published 2023)
Where a SMILES comes first, the peptide text is derived from it. [ ]: non-standard residue; d: D form. Trp(4-Cl)(βS-Me) = C[C@@H](c1c[nH]c2cccc(Cl)c12)[C@H](N)C(=O)O; Bip(4'-COOH) = N[C@@H](Cc1ccc(-c2ccc(C(=O)O)cc2)cc1)C(=O)O; 1Nal(3S-Me) = C[C@@H](c1cccc2ccccc12)[C@H](N)C(=O)O; Ala(pyrimidin-5-yl) = N[C@@H](Cc1cncnc1)C(=O)O; Phe(4-COOH) = N[C@@H](Cc1ccc(C(=O)O)cc1)C(=O)O; Trp(7-aza) = N[C@@H](Cc1c[nH]c2ncccc12)C(=O)O; h3Pal(5-CN) = N#Cc1cncc(CC[C@H](N)C(=O)O)c1; Pro(4R-NH2) = N[C@H]1CN[C@H](C(=O)O)C1; 1Nal = N[C@@H](Cc1cccc2ccccc12)C(=O)O; Ala(4-THP) = N[C@@H](CC1CCOCC1)C(=O)O; hTyr = N[C@@H](CCc1ccc(O)cc1)C(=O)O; dDab = NCC[C@@H](N)C(=O)O; dNMeA = CN[C@H](C)C(=O)O; Dap = NC[C@H](N)C(=O)O; Aib = CC(C)(N)C(=O)O

Molecular target: T1, Recombinant human IL-1β (Homo sapiens, UniProt P01584)
T1 construct: purchased BioLegend 579404
T1 sequence (P01584 117-269): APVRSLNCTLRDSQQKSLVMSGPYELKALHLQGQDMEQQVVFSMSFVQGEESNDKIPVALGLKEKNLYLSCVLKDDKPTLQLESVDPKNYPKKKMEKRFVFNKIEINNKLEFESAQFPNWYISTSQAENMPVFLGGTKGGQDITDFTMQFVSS
Assay: IL-6 assay in MRC5 cells: inhibition of IL-1β induced IL-6 secretion (AlphaLISA)
Format: cell-based
Settings: inhibition of IL-1β induced IL-6 secretion in MRC5 cells; IL-1β pre-incubated 1 hour with compound; read-out: MRC5 IC50
Procedure: Procedure for IL-6 Assay in MRC5 Cells
The inhibition of IL-1β induced IL-6 secretion was evaluated in MRC5 cells. Recombinant human IL-1β (BioLegend 579404) at 2×EC80 concentration was prepared in seeding medium, EMEM (ATCC 30-2003) with 0.025% BSA (Sigma A9576), 1× penicillin/streptomycin (Gibco 15070-063), 1×NEAA (Gibco 11140-050), 1× GlutaMax (Gibco 35050-061), and 1× sodium pyruvate (Gibco 11360-070). 20 μL of IL-1β was added to a 384-well collagen-coated plate (Corning 354664) and pre-incubated at ambient temperature for 1 hour with 200 nL of compound dispensed using an ECHO 555 liquid handler. Human lung fibroblast MRC5 cells (ATCC CCL-171) were added at a density of 3000 cells/20 μL per well. The cells were prepared by passaging three times in growth medium, EMEM (ATCC 30-2003) with 10% fetal bovine serum (Gibco 16140-071), 1× penicillin/streptomycin (Gibco 15070-063), 1×NEAA (Gibco 11140-050), 1× GlutaMax (Gibco 35050-061), and 1× sodium pyruvate (Gibco 11360-070) in collagen-coated T175 flasks (Greiner 661950) and harvested in seeding medium after 5 minutes of 0.25% trypsin-EDTA (Gibco 25200-056) digestion. The 384-well collagen-coated plate, containing a final volume of 40 μL, was incubated at 37° C., 5% CO2 overnight. 5 μL of the conditioned medium was transferred to a 384-well AlphaLISA plate (PerkinElmer 6005350) for detection of IL-6 using the human AlphaLISA IL-6 kit (PerkinElmer AL223F) as per the manufacturer's protocol. 20 μL of the acceptor bead/biotinylated antibody mix was added to the 384-well AlphaLISA plate and incubated for 1 hour at ambient temperature. The donor bead mix was protected from light and 25 μL was added to the plate and incubated for 30 minutes at ambient temperature. The AlphaLISA plate was read on an EnVision multimode plate reader (Perkin Elmer model 2104) using the AlphaScreen setting (laser exc at 680 nm and emis at 570 nm). Dose response curves and IC50 values were analyzed using a 4-parameter logistic equation in Spotfire software (Tibco, Palo Alto, CA).

Question: How did the IC50 turn out when `C[C@@H]1C(=O)NCC(=O)N[C@@H](Cc2ccc(-c3ccc(C(=O)O)cc3)cc2)C(=O)N[C@@H](CC2CCOCC2)C(=O)N[C@@H](CN)C(=O)N[C@H](C)C(=O)N[C@@H](CCc2cncc(C#N)c2)C(=O)N[C@@H](Cc2ccc(-c3ccc(C(=O)O)cc3)cc2)C(=O)N[C@@H](Cc2c[nH]c3ccccc23)C(=O)N[C@@H](Cc2ccc(C(=O)O)cc2)C(=O)NCC(=O)N2C[C@H](N)C[C@H]2C(=O)N[C@@H]([C@@H](C)c2cccc3ccccc23)C(=O)N[C@@H](CC(=O)O)C(=O)N1C` [Example 23] (cyclo([Bip(4'-COOH)]W[Phe(4-COOH)]G[Pro(4R-NH2)][1Nal(3S-Me)]D[dNMeA]G[Bip(4'-COOH)][Ala(4-THP)][Dap][dA][h3Pal(5-CN)])) was run?
Answer: Its IC50 is 0.0112 nM.

Question: How did the IC50 turn out when `C[C@@H]1C(=O)NCC(=O)N[C@@H](Cc2ccc(-c3ccc(C(=O)O)cc3)cc2)C(=O)N[C@@H](CC2CCOCC2)C(=O)N[C@@H](CN)C(=O)N[C@H](C)C(=O)N[C@@H](CCc2ccc(O)cc2)C(=O)N[C@@H](Cc2ccc(-c3ccc(C(=O)O)cc3)cc2)C(=O)N[C@@H](Cc2c[nH]c3ccccc23)C(=O)N[C@@H](Cc2ccc(C(=O)O)cc2)C(=O)NCC(=O)N2C[C@H](N)C[C@H]2C(=O)N[C@@H]([C@@H](C)c2cccc3ccccc23)C(=O)N[C@@H](CC(=O)O)C(=O)N1C` [Example 24] (cyclo([Bip(4'-COOH)]W[Phe(4-COOH)]G[Pro(4R-NH2)][1Nal(3S-Me)]D[dNMeA]G[Bip(4'-COOH)][Ala(4-THP)][Dap][dA][hTyr])) was run?
Answer: Its IC50 is 0.0291 nM.

Question: With `CC(C)C[C@@H]1NC(=O)[C@H](CCCCN)NC(=O)[C@H](Cc2ccc(-c3ccc(C(=O)O)cc3)cc2)NC(=O)CNC(=O)[C@@H](C)N(C)C(=O)[C@H](CC(=O)O)NC(=O)[C@H]([C@@H](C)c2cccc3ccccc23)NC(=O)[C@@H]2C[C@@H](N)CN2C(=O)CNC(=O)[C@H](Cc2ccc(C(=O)O)cc2)NC(=O)[C@H](Cc2c[nH]c3ccccc23)NC(=O)[C@H](Cc2ccc(-c3ccc(C(=O)O)cc3)cc2)NC(=O)[C@H](CCc2ccc(O)cc2)NC(=O)[C@@H](C)NC1=O` [Example 25] (cyclo([Bip(4'-COOH)]W[Phe(4-COOH)]G[Pro(4R-NH2)][1Nal(3S-Me)]D[dNMeA]G[Bip(4'-COOH)]KL[dA][hTyr])) as the compound, how does the IC50 read?
Answer: The IC50 was 0.0542 nM.

Question: How did the IC50 turn out when `CC(C)C[C@@H]1NC(=O)[C@H](CCCCN)NC(=O)[C@H](Cc2ccc(-c3ccc(C(=O)O)cc3)cc2)NC(=O)CNC(=O)[C@@H](C)N(C)C(=O)[C@H](CC(=O)O)NC(=O)[C@H]([C@@H](C)c2cccc3ccccc23)NC(=O)[C@@H]2C[C@@H](N)CN2C(=O)CNC(=O)[C@H](Cc2ccc(C(=O)O)cc2)NC(=O)[C@H](Cc2c[nH]c3ccccc23)NC(=O)[C@H](Cc2ccc(-c3ccc(C(=O)O)cc3)cc2)NC(=O)[C@H](CCc2ccc(O)cc2)NC(=O)[C@@H](CO)NC1=O` [Example 26] (cyclo([Bip(4'-COOH)]W[Phe(4-COOH)]G[Pro(4R-NH2)][1Nal(3S-Me)]D[dNMeA]G[Bip(4'-COOH)]KL[dS][hTyr])) was run?
Answer: The IC50 was 0.0688 nM.

Question: Which IC50 does the source give for `C[C@@H]1C(=O)NCC(=O)N[C@@H](Cc2ccc(-c3ccc(C(=O)O)cc3)cc2)C(=O)N[C@@H](Cc2cncnc2)C(=O)N[C@@H](CN)C(=O)N[C@H](C)C(=O)N[C@@H](CCc2cncc(C#N)c2)C(=O)N[C@@H](Cc2ccc(-c3ccc(C(=O)O)cc3)cc2)C(=O)N[C@@H](Cc2c[nH]c3ccccc23)C(=O)N[C@@H](Cc2ccc(C(=O)O)cc2)C(=O)NCC(=O)N2C[C@H](N)C[C@H]2C(=O)N[C@@H]([C@@H](C)c2cccc3ccccc23)C(=O)N[C@@H](CC(=O)O)C(=O)N1C` [Example 27] (cyclo([Bip(4'-COOH)]W[Phe(4-COOH)]G[Pro(4R-NH2)][1Nal(3S-Me)]D[dNMeA]G[Bip(4'-COOH)][Ala(pyrimidin-5-yl)][Dap][dA][h3Pal(5-CN)])) here?
Answer: The IC50 was 0.017 nM.

Question: Which IC50 does the source give for `C[C@@H]1C(=O)NCC(=O)N[C@@H](Cc2ccc(-c3ccc(C(=O)O)cc3)cc2)C(=O)N[C@@H](Cc2cncnc2)C(=O)N[C@@H](CN)C(=O)N[C@H](C)C(=O)N[C@@H](CCc2ccc(O)cc2)C(=O)N[C@@H](Cc2ccc(-c3ccc(C(=O)O)cc3)cc2)C(=O)N[C@@H](Cc2c[nH]c3ccccc23)C(=O)N[C@@H](Cc2ccc(C(=O)O)cc2)C(=O)NCC(=O)N2C[C@H](N)C[C@H]2C(=O)N[C@@H]([C@@H](C)c2cccc3ccccc23)C(=O)N[C@@H](CC(=O)O)C(=O)N1C` [Example 28] (cyclo([Bip(4'-COOH)]W[Phe(4-COOH)]G[Pro(4R-NH2)][1Nal(3S-Me)]D[dNMeA]G[Bip(4'-COOH)][Ala(pyrimidin-5-yl)][Dap][dA][hTyr])) here?
Answer: The IC50 was 0.0393 nM.

Question: How did the IC50 turn out when `C[C@@H]1C(=O)NCC(=O)N[C@@H](Cc2ccc(-c3ccc(C(=O)O)cc3)cc2)C(=O)N[C@@H](Cc2c[nH]c3ncccc23)C(=O)N[C@@H](CN)C(=O)N[C@H](C)C(=O)N[C@@H](CCc2ccc(O)cc2)C(=O)N[C@@H](Cc2ccc(-c3ccc(C(=O)O)cc3)cc2)C(=O)N[C@@H](Cc2c[nH]c3ccccc23)C(=O)N[C@@H](Cc2ccc(C(=O)O)cc2)C(=O)NCC(=O)N2C[C@H](N)C[C@H]2C(=O)N[C@@H]([C@@H](C)c2cccc3ccccc23)C(=O)N[C@@H](CC(=O)O)C(=O)N1C` [Example 29] (cyclo([Bip(4'-COOH)]W[Phe(4-COOH)]G[Pro(4R-NH2)][1Nal(3S-Me)]D[dNMeA]G[Bip(4'-COOH)][Trp(7-aza)][Dap][dA][hTyr])) was run?
Answer: Its IC50 is 0.0205 nM.

Question: `C[C@@H]1C(=O)NCC(=O)N[C@@H](Cc2ccc(-c3ccc(C(=O)O)cc3)cc2)C(=O)N[C@@H](Cc2c[nH]c3ccccc23)C(=O)N[C@@H](CN)C(=O)N[C@H](C)C(=O)N[C@@H](CCc2cncc(C#N)c2)C(=O)N[C@@H](Cc2ccc(-c3ccc(C(=O)O)cc3)cc2)C(=O)N[C@@H](Cc2c[nH]c3ccccc23)C(=O)N[C@@H](Cc2ccc(C(=O)O)cc2)C(=O)NCC(=O)N2C[C@H](N)C[C@H]2C(=O)N[C@@H]([C@@H](C)c2cccc3ccccc23)C(=O)N[C@@H](CC(=O)O)C(=O)N1C` [Example 30] (cyclo([Bip(4'-COOH)]W[Phe(4-COOH)]G[Pro(4R-NH2)][1Nal(3S-Me)]D[dNMeA]G[Bip(4'-COOH)]W[Dap][dA][h3Pal(5-CN)])) was tested. Which IC50 did it give?
Answer: The IC50 was 0.0185 nM.

Question: Which IC50 does the source give for `C[C@@H]1C(=O)NCC(=O)N[C@@H](Cc2ccc(-c3ccc(C(=O)O)cc3)cc2)C(=O)N[C@@H](Cc2c[nH]c3ccccc23)C(=O)N[C@@H](CN)C(=O)N[C@H](C)C(=O)N[C@@H](CCc2ccc(O)cc2)C(=O)N[C@@H](Cc2ccc(-c3ccc(C(=O)O)cc3)cc2)C(=O)N[C@@H](Cc2c[nH]c3ccccc23)C(=O)N[C@@H](Cc2ccc(C(=O)O)cc2)C(=O)NCC(=O)N2C[C@H](N)C[C@H]2C(=O)N[C@@H]([C@@H](C)c2cccc3ccccc23)C(=O)N[C@@H](CC(=O)O)C(=O)N1C` [Example 31] (cyclo([Bip(4'-COOH)]W[Phe(4-COOH)]G[Pro(4R-NH2)][1Nal(3S-Me)]D[dNMeA]G[Bip(4'-COOH)]W[Dap][dA][hTyr])) here?
Answer: Its IC50 is 0.0208 nM.

Question: `C[C@@H]1C(=O)NCC(=O)N[C@@H](Cc2ccc(-c3ccc(C(=O)O)cc3)cc2)C(=O)N[C@@H](Cc2c[nH]c3ccccc23)C(=O)NCC(=O)N[C@H](CCN)C(=O)N[C@@H](CCc2ccc(O)cc2)C(=O)N[C@@H](Cc2ccc(-c3ccc(C(=O)O)cc3)cc2)C(=O)N[C@@H](Cc2c[nH]c3ccccc23)C(=O)N[C@@H](Cc2ccc(C(=O)O)cc2)C(=O)NCC(=O)N2C[C@H](N)C[C@H]2C(=O)N[C@@H]([C@@H](C)c2cccc3ccccc23)C(=O)N[C@@H](CC(=O)O)C(=O)N1C` [Example 32] (cyclo([Bip(4'-COOH)]W[Phe(4-COOH)]G[Pro(4R-NH2)][1Nal(3S-Me)]D[dNMeA]G[Bip(4'-COOH)]WG[dDab][hTyr])) was tested. Which IC50 did it give?
Answer: Its IC50 is 0.033 nM.

Question: For `CC(C)C[C@@H]1NC(=O)[C@H](Cc2cccc3ccccc23)NC(=O)[C@H](Cc2ccc(-c3ccc(C(=O)O)cc3)cc2)NC(=O)CNC(=O)[C@@H](C)N(C)C(=O)[C@H](C)NC(=O)[C@H]([C@@H](C)c2c[nH]c3cccc(Cl)c23)NC(=O)[C@@H]2C[C@@H](N)CN2C(=O)CNC(=O)[C@H](Cc2ccc(C(=O)O)cc2)NC(=O)[C@H](Cc2c[nH]c3ccccc23)NC(=O)[C@H](Cc2ccc(-c3ccc(C(=O)O)cc3)cc2)NC(=O)CNC(=O)C(C)(C)NC1=O` [Example 33] (cyclo([Bip(4'-COOH)]W[Phe(4-COOH)]G[Pro(4R-NH2)][Trp(4-Cl)(βS-Me)]A[dNMeA]G[Bip(4'-COOH)][1Nal]L[Aib]G)), which IC50 is on record?
Answer: Its IC50 is 0.544 nM.
